Data taken from patent US20230181564A1, “Potent Tetrahydroquinolone Eliminates Apicomplexan Parasites” (The University of Chicago, priority 2020, published 2023).

Columns and labels:
bovine cytochrome bc1 = target: T1, bovine cytochrome bc1 (Bos taurus, UniProt P00157); test: Bovine cytochrome bc1 activity assay; assay type: biochemical; conditions: read-out: Inhibition of bovine Cytbc1 activity
T1 construct: Whole fresh bovine heart was collected after slaughter; from tissue; host or cells: bovine heart mitochondria; DDM-solubilised, DEAE-Sepharose, Sephacryl S-300, PEG fractionation
Description: Bovine cytochrome bc1 activity assays. Bovine cytochrome bc, inhibition assay was carried out in 50 mM KPi pH 7.5, 2 mM EDTA, 10 mM KCN, 30 μM equine heart cytochrome c (Sigma Aldrich), and 2.5 nM bovine cytochrome bc, at room temperature. 20 mM inhibitors dissolved in DMSO were added to the assay at a desired concentration without prior incubation. […] The reaction was initiated by the addition of 50 μM decylubiquinol (Abcam). The reduced cytochrome c was monitored by the different absorption between 550 and 542 nm using extinction coefficient of 18.1 mM^−1 cm^−1 in a SPECTRAmax Plus 384 UV-visible Spectrometer. The initial kinetic rate is determined as a zero-order reaction and used as the specific activity of cytochrome bc1.

[1] = test system: Human Foreskin Fibroblast (HFF); test: Cytotoxicity assay with WST-1 on HFF; assay type: cell-based
Description: PBS Sol/Toxicity pH7.4 refers to solubility of the compound in Phosphate Buffered Saline (PBS) at pH7.4. […] Tachy/Brady IC50 was determined in studies in which cultures of parasites in HFF were treated with varying concentrations of the compound and there was 50% inhibition of the replication (number) of parasites. Parasites were RH-YFP expressing tachyzoites (Tachy) and EGS (Brady) strains. Studies of effects of inhibitors on HFF or on T.gondii tachyzoites were performed with triplicate wells in at least two biological replicate experiments. Studies of effects on bradyzoites were performed at least twice in at least two biological replicate experiments. Compounds with much less inhibition of mammalian than T. gondii cytochrome bc in the saffarine enzyme assay (indicated by **) provide potential to further develop compounds, if unanticipated toxicity occurs from JAG21.
Cytotoxicity Assays in parallel with RH Strain T.gondii in vitro studies. Toxicity assays used WST-1 cell proliferation reagent (Roche) as in Fomovska et al. (2012). HFF were grown on a flat, clear-bottomed, black 96-well plate. Confluent HFF were treated with inhibitory compounds at concentrations of 10 μM and 50 μM. Compounds were diluted in IMDM-C, and 20 μL were added to each designated well, with triplicates for each condition. A gradient with 2 fold-decreasing concentrations of DMSO from 10% to 0% in colorless, translucent IMDM-C was used as a control. The plate was incubated for 72 hours at 37° C. 10 μL WST-1 reagent (Roche) were added to each well. Cells were incubated for 30-60 minutes. Absorbance was read using a fluorimeter at 420 nm. A higher degree of color change (and absorbance) indicated mitochondrial activity and cell viability.
Because T. gondii grows inside cells, if a compound were toxic to host HFF then it would make the compound appear to be spuriously effective (Fomovska et al. 2012; Fomovska et al. 2012a), when in actuality only toxicity for the host cell would be measured. Cytotoxicity to HFF was therefore assessed for all compounds at 10 μM. Results of this experiment are in Table 1, toxicity column. A two-way ANOVA and subsequent pairwise comparison found none of the differences in absorbance, compared to the media-DMSO vehicle controls, to be statistically significant (p>0.05). Most of these compounds are not toxic at 10 μM (the limit of solubility) and that cytotoxicity to cells can be attributed to DMSO in the solution, not the compound.

[2] = test system: T. gondii RH-YFP tachyzoites; test: Synergy studies with RH strain YFP tachyzoites; assay type: cell-based, Toxoplasma gondii
Description: Synergy studies with RH strain YFP Tachyzoites. Atovaquone and pyrimethamine were used to test whether they are synergistic with JAG21. Serial dilutions of the combination of JAG21 and either atovaquone or pyrimethamine were used in an in vitro challenge assay as described above. The EC50 of each compound and the combination of two compounds were determined. The effect of the combination of drugs was calculated with the following formula: C=[A]c/[A]a+[B]c/[B]a. If C is lower than 1, the two compounds tested have synergistic effect; if C is greater than 1, the two compounds tested have antagonist effect and if C is 1 they are additive.

hERG = hERG (Homo sapiens, UniProt Q12809); test: hERG liability; assay type: in vitro ADME
Sequence of hERG (Q12809 whole entry): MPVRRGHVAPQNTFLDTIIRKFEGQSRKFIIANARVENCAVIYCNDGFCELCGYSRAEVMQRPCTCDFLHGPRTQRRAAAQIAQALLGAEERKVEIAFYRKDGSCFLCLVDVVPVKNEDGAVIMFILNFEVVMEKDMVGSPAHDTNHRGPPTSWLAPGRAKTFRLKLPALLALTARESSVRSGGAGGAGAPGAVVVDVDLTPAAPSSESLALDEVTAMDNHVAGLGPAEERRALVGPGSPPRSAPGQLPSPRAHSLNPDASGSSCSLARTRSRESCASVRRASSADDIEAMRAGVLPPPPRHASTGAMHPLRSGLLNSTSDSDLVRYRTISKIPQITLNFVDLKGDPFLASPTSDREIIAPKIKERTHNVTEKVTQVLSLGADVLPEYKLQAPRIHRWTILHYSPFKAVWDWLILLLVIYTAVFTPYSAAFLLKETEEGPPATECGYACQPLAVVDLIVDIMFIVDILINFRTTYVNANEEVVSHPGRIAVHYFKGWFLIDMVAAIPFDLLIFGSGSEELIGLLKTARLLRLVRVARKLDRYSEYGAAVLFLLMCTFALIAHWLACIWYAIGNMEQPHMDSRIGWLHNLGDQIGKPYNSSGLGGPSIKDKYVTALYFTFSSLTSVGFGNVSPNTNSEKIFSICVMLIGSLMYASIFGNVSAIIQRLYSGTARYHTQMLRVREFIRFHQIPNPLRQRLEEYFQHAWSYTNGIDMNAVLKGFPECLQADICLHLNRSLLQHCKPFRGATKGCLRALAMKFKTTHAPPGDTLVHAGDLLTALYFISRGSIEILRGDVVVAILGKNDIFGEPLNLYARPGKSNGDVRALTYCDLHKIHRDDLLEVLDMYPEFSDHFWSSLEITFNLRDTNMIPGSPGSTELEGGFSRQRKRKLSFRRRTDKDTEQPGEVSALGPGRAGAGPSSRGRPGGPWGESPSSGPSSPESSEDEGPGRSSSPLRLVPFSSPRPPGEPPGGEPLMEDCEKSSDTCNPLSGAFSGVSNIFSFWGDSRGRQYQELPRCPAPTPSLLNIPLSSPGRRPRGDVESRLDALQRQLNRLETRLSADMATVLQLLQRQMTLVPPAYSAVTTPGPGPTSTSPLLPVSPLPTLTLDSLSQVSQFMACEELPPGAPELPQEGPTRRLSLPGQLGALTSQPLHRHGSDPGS
Description: Structure Activity Relationship (SAR) and comparison of effect on T.gondii and HFF enzyme activity. […] The MDCK-MDR1 Permeability Assay was also performed. […] These were measured by Chem Partners.

[3] = test system: T. gondii (Prugneaud strain expressing luciferase) tachyzoites; test: Acute infection with Prugneaud luciferase tachyzoites in Balb/C mice (IVIS, brain cysts); assay type: in vivo, Toxoplasma gondii
Description: IVIS. Balb/C mice were infected intraperitoneally (IP) with 20×10^3 T. gondii (Prugneaud strain expressing luciferase) tachyzoites. Treatment began 2 hours later with JAG21 (5 mg/kg) which was dissolved in DMSO, administered IP in a total volume of 0.05 ml. Mice were imaged every second day starting on day 4 post infection using an IVIS Spectrum (Caliper Life Sciences) for […], with medium binning, 20 minutes post injection with 150 mg/kg of D-luciferin potassium salt solution.
Brain cysts. Brain cysts were searched for in paraffin imbedded tissue of the surviving Prugneaud strain infected treated Balb/C mice in the IVIS study, 30 days after infection which was 16 days after treatment had been discontinued. All treated mice had survived. There were no surviving untreated mice in those experiments.

T. gondii Me49 strain = test: Established chronic Me49 infection in Balb/C mice, brain cysts; assay type: in vivo, Toxoplasma gondii; conditions: treatment from day 30 after Me49 infection, IP daily for 14 days; p<0.03, p<0.01
Description: In separate experiments, Balb/C mice were infected IP with 20×10^3 T. gondii Me49 strain tachyzoites. In these separate studies of mice with established chronic infection, after 30 days, IP treatment with JAG21 was begun each day for 14 days. JAG21 was dissolved in DMSO and administered IP in a total volume of 0.05 mL. In experiments when tafenoquine was administered alone or with JAG21 in some groups 3 mg/kg tafenoquine was administered once on day −1 from when JAG21 treatment was initiated. Cysts in brain were quantitated on day 30, 16 days after discontinuing JAG21. Immunoperoxidase staining was performed. Parasite burden was quantitated in two ways. The first was using a positive pixel count algorithm of Aperio ImageScope software. Positive pixels were normalized to tissue area (mm^2). Briefly, automated quantitation was done by counting positive pixels per square area. The entire brain in one section was scanned for each mouse. The Cyst burden was quantitated as units of positive pixels per mm2. The average±S.E.M. numbers of mm2 per slide quantitated was 30.2±1.6 square mm per mouse for this quantification. […] Cysts on each slide for each condition in two biological replicate experiments were also quantitated by 2 separate observers independently and results compared with automated counting, separately.

## Cc1[nH]c2c(c(=O)c1-c1ccc(Oc3ccc(OC(F)(F)F)cc3)cc1)CCCC2 [JAG021, 2-methyl-3-(4-(4-(trifluoromethoxy)phenoxy)phenyl)-5,6,7,8-tetrahydroquinolin-4-one]
Bovine cytochrome bc1; 0.1 μM
  inhibition at 0.1 µM: 36%
Bovine cytochrome bc1; 1 μM
  inhibition at 1 µM: 63%
[1]
  Toxicity to human cells in the in vitro model (HFF): not toxic
[2]; isobologram
  Combination with atovaquone against RH strain tachyzoites: synergy
[2]; no synergy
  Combination with pyrimethamine against RH strain tachyzoites: no antagonism
hERG
  hERG liability: no hERG liability
[3]; 5 mg/kg/day IP
  Luciferase tachyzoites in luminescence studies: eliminates illness and T. gondii Type II Prugneaud luciferase tachyzoites completely
[3]; 5 mg/kg/day for 14 days from start of infection, brains evaluated at 30 days
  Cysts in brains: no cysts being found
[3]; Balb/C mice, JAG21 5 mg/kg IP for 14 days
  Survival of infected mice: 100%
T. gondii Me49 strain
  Normal appearing cysts, free organisms and immunoperoxidase stained cysts in brain: marked, statistically significant reduction
